Reference: patent US5516894A, “A2b -adenosine receptors” (priority 1994, dated 1996)
“Also recorded” adds a separate entry of the source. Blank lines part the entries; values can stand above or below the molecule they belong to.

Columns and labels:
[1] = target: T1, RFL9 (rat A2b-adenosine receptor) (Rattus norvegicus, UniProt P29276); experiment: ligand binding to COS-6M cells transiently transfected with RFL9; settings: for specific binding: [3H]NECA 20 nM, [3H]CCPA 2 nM, [3H]CGS-21680 20 nM
T1 sequence (P29276 1-332): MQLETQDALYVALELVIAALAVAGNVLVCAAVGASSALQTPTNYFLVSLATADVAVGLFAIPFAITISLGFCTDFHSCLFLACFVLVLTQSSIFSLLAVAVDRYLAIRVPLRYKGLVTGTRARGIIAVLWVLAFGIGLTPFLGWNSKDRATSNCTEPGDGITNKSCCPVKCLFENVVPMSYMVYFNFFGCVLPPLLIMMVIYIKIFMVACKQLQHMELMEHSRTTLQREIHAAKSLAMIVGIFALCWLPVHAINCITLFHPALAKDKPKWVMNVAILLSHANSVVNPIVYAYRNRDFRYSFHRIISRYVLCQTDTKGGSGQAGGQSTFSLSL

[2] = system: dog A2a-adenosine receptor; settings: cited from earlier work
[3] = target: T1, RFL9 (rat A2b-adenosine receptor); experiment: cAMP response in COS-6M cells transfected with RFL9; format: cell-based
[4] = target: T1, RFL9 (rat A2b-adenosine receptor); experiment: cAMP in CHO cells stably transfected with RFL9; format: cell-based; settings: NECA 1 μM; four clones
From the text: Eight clones were identified which expressed RFL9 mRNA.
Generation of Stable Cell Lines
RNA was extracted from cells following NP-40 lysis.
Cyclic AMP Studies on Stable Transfectants

[5] = system: A2a-adenosine receptors; settings: cited from earlier work
[6] = target: T2, rat A1-adenosine receptor (Rattus norvegicus, UniProt P25099); experiment: [3H]ligand binding to COS-6M cells transiently transfected with rat A1-adenosine receptor cDNA; settings: [3H]NECA 20 nM, [3H]CCPA 2 nM
T2 sequence (P25099 1-326): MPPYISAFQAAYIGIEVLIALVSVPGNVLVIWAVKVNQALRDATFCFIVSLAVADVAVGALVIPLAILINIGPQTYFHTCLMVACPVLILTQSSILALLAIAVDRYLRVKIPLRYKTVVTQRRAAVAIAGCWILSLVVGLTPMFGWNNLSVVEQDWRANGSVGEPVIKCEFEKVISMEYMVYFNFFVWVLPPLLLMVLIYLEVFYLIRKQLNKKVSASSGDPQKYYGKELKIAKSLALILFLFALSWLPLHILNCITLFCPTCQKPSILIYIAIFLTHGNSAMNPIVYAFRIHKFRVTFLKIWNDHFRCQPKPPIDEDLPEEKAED

[7] = target: rat A2a-adenosine receptor (Rattus norvegicus, UniProt P30543); settings: COS-6M cells; [3H]NECA 20 nM, [3H]CCPA 2 nM, [3H]CGS-21680 20 nM
[8] = target: T1, RFL9 (rat A2b-adenosine receptor); experiment: [3H]NECA specific binding to RFL9-transformed CHO cells; settings: 100 nM; n=3
From the text: All determinations were done in triplicate.

[9] = system: non-transformed CHO cells; settings: 100 nM
[10] = system: CHO cells; experiment: cAMP accumulation in non-transformed CHO cells; format: cell-based, Chinese Hamster; settings: 1 mM; CHO cells not transformed; n=3

SMILES: COc1ccc2[nH]c([125I])c(CCNC(C)=O)c2c1 [2[^125 1]melatonin]
specific binding of 2[125I]melatonin [1]: do not exhibit specific binding

SMILES: CCNC(=O)[C@H]1O[C@@H](n2cnc3c(N)nc(NCCc4ccc(CCC(=O)O)cc4)nc32)[C@H](O)[C@@H]1O [CGS-21680, 2-[p-(2-carboxyethyl)phenethylamino]5'-N-ethylcarbox-amidoadenosine]
affinity for dog A2a-adenosine receptor [2]: high affinity

SMILES: CCNC(=O)[C@H]1O[C@@H](n2cnc3c(N)ncnc32)[C@H](O)[C@@H]1O [NECA, 5'-N-ethylcarboxamidoadenosine]
specific binding [1]: bind the nonselective adenosine agonist NECA
EC100 ([3]; 10 min, read-out: concentration of maximal stimulation of cAMP): 10 µM
NECA-stimulated increase in cAMP levels ([3]; dose-response): dose-dependent increase in cAMP levels
stimulation of clones [4]: all were found to be stimulated by NECA addition
affinity for A2a-adenosine receptors [5]: high affinity

specific binding [6]: specifically bound
SMILES: OC[C@H]1O[C@@H](n2cnc3c(NC4CCCC4)nc(Cl)nc32)[C@H](O)[C@@H]1O [[^3 H]CCPA, [^3 H]2-chloro-N-cyclopentyladenosine]
specific binding [1]: did not bind; also recorded: do not bind either the A1 - or A2a -receptor-specific agonists with high affinity
specific binding [7]: Only cells transfected with the A1 -adenosine receptor cDNA specifically bound

SMILES: CCNC(=O)[C@H]1O[C@@H](n2cnc3c(N)nc(NCCc4ccc(CCC(=O)O)cc4)nc32)[C@H](O)[C@@H]1O [[^3 H]CGS-21680, [^3 H]2-[p-(2-carboxyethyl)phenethylamino]5'-N-ethylcarbox-amidoadenosine]
specific binding [6]: Only cells transfected with the A2a -adenosine receptor cDNA specifically bound

SMILES: CCNC(=O)[C@H]1O[C@@H](n2cnc3c(N)ncnc32)[C@H](O)[C@@H]1O [[^3 H]NECA, [^3 H]5'-N-ethylcarboxamidoadenosine]
specific binding [1]: specifically bound
[3H]NECA specific binding [8]: 150 ± 20 fmol/mg

SMILES: CCNC(=O)[C@H]1O[C@@H](n2cnc3c(N)ncnc32)[C@H](O)[C@@H]1O [[^3 H]NECA] [[^3 H]5'-N-ethylcarboxamidoadenosine]
specific binding [6]: specifically bound
[3H]NECA specific binding [9]: 100 ± 23 fmol/mg

SMILES: Nc1ncnc2c1ncn2[C@@H]1O[C@H](CO)[C@@H](O)[C@H]1O [adenosine]
cAMP accumulation [10]: Neither NECA or adenosine (1 mM) induced cAMP accumulation

SMILES: Cn1c(=O)c2[nH]cnc2n(C)c1=O [aminophylline]
inhibition of maximal NECA-stimulated increase in cAMP levels ([3]; antagonist 10^-2 M): completely blocked; also recorded: completely inhibited
